# Laboratory results from ChEMBL document CHEMBL1201862, “PubChem BioAssay data set” (2004).
#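 48-hour exposure; five concentrations; linearly interpolated endpoints. GI50 marks 50% less growth.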 Active and inactive are the calls of the source. Cut-off read from the data, not from the text of the source: active = GI50 up to about 1.1 µM and inactive = higher.
# Experiments:
# Assay in all cases: inhibition of tumour cell growth, NCI panel, 48 h
# 786-0 = system: 786-0
# A549 = system: A549
# ACHN = system: ACHN
# BT-549 = system: BT-549
# CCRF-CEM = system: CCRF-CEM
# COLO 205 = system: COLO 205
# DU-145 = system: DU-145
# HCT-116 = system: HCT-116
# HCT-15 = system: HCT-15
# HL-60 = system: HL-60
# HOP-62 = system: HOP-62
# HOP-92 = system: HOP-92
# HT-29 = system: HT-29
# Hs-578T = system: Hs-578T
# IGROV-1 = system: IGROV-1
# K562 = system: K562
# KM12 = system: KM12
# LOX IMVI = system: LOX IMVI
# M14 = system: M14
# MCF7 = system: MCF7
# MDA-MB-231 = system: MDA-MB-231
# MDA-N = system: MDA-N
# MOLT-4 = system: MOLT-4
# Malme-3M = system: Malme-3M
# NCI-H226 = system: NCI-H226
# NCI-H23 = system: NCI-H23
# NCI-H460 = system: NCI-H460
# NCI-H522 = system: NCI-H522
# NCI/ADR-RES = system: NCI/ADR-RES
# OVCAR-3 = system: OVCAR-3
# OVCAR-4 = system: OVCAR-4
# OVCAR-5 = system: OVCAR-5
# PC-3 = system: PC-3
# RPMI-8226 = system: RPMI-8226
# RXF 393 = system: RXF 393
# SF-268 = system: SF-268
# SF-295 = system: SF-295
# SF-539 = system: SF-539
# SK-MEL-5 = system: SK-MEL-5
# SK-OV-3 = system: SK-OV-3
# SN12C = system: SN12C
# SNB-19 = system: SNB-19
# SNB-75 = system: SNB-75
# SR = system: SR
# SW-620 = system: SW-620
# T47D = system: T47D
# TK-10 = system: TK-10
# U-251 = system: U-251
# UACC-257 = system: UACC-257
# UACC-62 = system: UACC-62
# UO-31 = system: UO-31
# A498 = system: A498
# CAKI-1 = system: CAKI-1
# EKVX = system: EKVX
# HCC 2998 = system: HCC 2998
# OVCAR-8 = system: OVCAR-8
# SK-MEL-28 = system: SK-MEL-28
# SK-MEL-2 = system: SK-MEL-2
# MDA-MB-435 = system: MDA-MB-435
smiles,measurement,setting,value
NC1=Nc2ccccc2Sc2nc3ccccc3n21,GI50,786-0,2.23 µM (inactive)
same,GI50,A549,26.7 µM (inactive)
same,GI50,ACHN,29.7 µM (inactive)
same,GI50,BT-549,34.3 µM (inactive)
same,GI50,CCRF-CEM,3.33 µM (inactive)
same,GI50,COLO 205,7.8 µM (inactive)
same,GI50,DU-145,39.6 µM (inactive)
same,GI50,HCT-116,5.47 µM (inactive)
same,GI50,HCT-15,35.5 µM
same,GI50,HL-60,2.4 µM (inactive)
same,GI50,HOP-62,52.5 µM (inactive)
same,GI50,HOP-92,22.7 µM (inactive)
same,GI50,HT-29,9.12 µM (inactive)
same,GI50,Hs-578T,55.7 µM (inactive)
same,GI50,IGROV-1,34.4 µM (inactive)
same,GI50,K562,9.38 µM (inactive)
same,GI50,KM12,27.2 µM (inactive)
same,GI50,LOX IMVI,18.9 µM (inactive)
same,GI50,M14,5.46 µM (inactive)
same,GI50,MCF7,5.53 µM (inactive)
same,GI50,MDA-MB-231,19.1 µM (inactive)
same,GI50,MDA-N,5.13 µM (inactive)
same,GI50,MOLT-4,4.54 µM (inactive)
same,GI50,Malme-3M,> 100 µM (inactive)
same,GI50,NCI-H226,10.4 µM (inactive)
same,GI50,NCI-H23,25.5 µM (inactive)
same,GI50,NCI-H460,17.2 µM (inactive)
same,GI50,NCI-H522,13.9 µM (inactive)
same,GI50,NCI/ADR-RES,27 µM (inactive)
same,GI50,OVCAR-3,8.02 µM (inactive)
same,GI50,OVCAR-4,7.85 µM (inactive)
same,GI50,OVCAR-5,8.15 µM (inactive)
same,GI50,PC-3,9.62 µM (inactive)
same,GI50,RPMI-8226,4.46 µM (inactive)
same,GI50,RXF 393,19.4 µM (inactive)
same,GI50,SF-268,18.4 µM (inactive)
same,GI50,SF-295,43.3 µM (inactive)
same,GI50,SF-539,21.1 µM (inactive)
same,GI50,SK-MEL-5,5.4 µM (inactive)
same,GI50,SK-OV-3,17.1 µM (inactive)
same,GI50,SN12C,48.2 µM (inactive)
same,GI50,SNB-19,50.1 µM (inactive)
same,GI50,SNB-75,15.6 µM (inactive)
same,GI50,SR,4.49 µM (inactive)
same,GI50,SW-620,46.1 µM (inactive)
same,GI50,T47D,21.6 µM (inactive)
same,GI50,TK-10,> 100 µM (inactive)
same,GI50,U-251,5.9 µM (inactive)
same,GI50,UACC-257,26.1 µM (inactive)
same,GI50,UACC-62,23.9 µM (inactive)
same,GI50,UO-31,7.5 µM (inactive)
COC(=O)NC1(NC(=O)OC)NC(=O)c2ccccc2N1,GI50,786-0,> 100 µM (inactive)
same,GI50,A498,> 100 µM (inactive)
same,GI50,A549,< 0.01 µM (active)
same,GI50,ACHN,> 100 µM (inactive)
same,GI50,BT-549,> 100 µM (inactive)
same,GI50,CAKI-1,> 100 µM (inactive)
same,GI50,CCRF-CEM,> 100 µM (inactive)
same,GI50,COLO 205,> 100 µM (inactive)
same,GI50,DU-145,> 100 µM (inactive)
same,GI50,EKVX,> 100 µM (inactive)
same,GI50,HCC 2998,> 100 µM (inactive)
same,GI50,HCT-116,> 100 µM (inactive)
same,GI50,HCT-15,63.5 µM
same,GI50,HL-60,> 100 µM (inactive)
same,GI50,HOP-62,> 100 µM (inactive)
same,GI50,HT-29,> 100 µM (inactive)
same,GI50,Hs-578T,> 100 µM (inactive)
same,GI50,IGROV-1,> 100 µM (inactive)
same,GI50,K562,> 100 µM (inactive)
same,GI50,KM12,80.4 µM (inactive)
same,GI50,M14,> 100 µM (inactive)
same,GI50,MCF7,> 100 µM (inactive)
same,GI50,MDA-MB-231,> 100 µM (inactive)
same,GI50,MDA-N,64.1 µM (inactive)
same,GI50,MOLT-4,> 100 µM (inactive)
same,GI50,Malme-3M,> 100 µM (inactive)
same,GI50,NCI-H226,> 100 µM (inactive)
same,GI50,NCI-H23,> 100 µM (inactive)
same,GI50,NCI-H460,> 100 µM (inactive)
same,GI50,NCI-H522,> 100 µM (inactive)
same,GI50,NCI/ADR-RES,> 100 µM (inactive)
same,GI50,OVCAR-3,> 100 µM (inactive)
same,GI50,OVCAR-4,> 100 µM (inactive)
same,GI50,OVCAR-5,> 100 µM (inactive)
same,GI50,OVCAR-8,> 100 µM (inactive)
same,GI50,PC-3,> 100 µM (inactive)
same,GI50,SF-268,> 100 µM (inactive)
same,GI50,SF-295,36.5 µM (inactive)
same,GI50,SF-539,> 100 µM (inactive)
same,GI50,SK-MEL-28,> 100 µM (inactive)
same,GI50,SK-MEL-2,0.0145 µM (active)
same,GI50,SK-MEL-5,> 100 µM (inactive)
same,GI50,SK-OV-3,> 100 µM (inactive)
same,GI50,SN12C,> 100 µM (inactive)
same,GI50,SNB-19,> 100 µM (inactive)
same,GI50,SNB-75,36 µM (inactive)
same,GI50,SR,> 100 µM (inactive)
same,GI50,SW-620,> 100 µM (inactive)
same,GI50,T47D,> 100 µM (inactive)
same,GI50,TK-10,96.2 µM (inactive)
same,GI50,UACC-257,> 100 µM (inactive)
same,GI50,UACC-62,> 100 µM (inactive)
same,GI50,UO-31,> 100 µM (inactive)
CC(=O)NC1C(OCc2ccccc2)OC(CO)C(O)C1OCC(=O)N[C@@H](C)C(=O)N[C@H](CCC(=O)NCCCNc1ccc([N+](=O)[O-])c2[nH]c3ccccc3c(=O)c12)C(N)=O (stereo not given in full),GI50,786-0,34.2 µM (inactive)
same,GI50,A498,> 100 µM (inactive)
same,GI50,A549,> 100 µM (inactive)
same,GI50,ACHN,50.8 µM (inactive)
same,GI50,BT-549,38.4 µM (inactive)
same,GI50,CAKI-1,> 100 µM (inactive)
same,GI50,CCRF-CEM,> 100 µM (inactive)
same,GI50,COLO 205,> 100 µM (inactive)
same,GI50,DU-145,60.8 µM (inactive)
same,GI50,EKVX,43 µM (inactive)
same,GI50,HCC 2998,49.3 µM (inactive)
same,GI50,HCT-116,45.4 µM (inactive)
same,GI50,HCT-15,94.2 µM
same,GI50,HL-60,> 100 µM (inactive)
same,GI50,HOP-62,65 µM (inactive)
same,GI50,HOP-92,> 100 µM (inactive)
same,GI50,HT-29,36.8 µM (inactive)
same,GI50,Hs-578T,26.2 µM (inactive)
same,GI50,IGROV-1,23.4 µM (inactive)
same,GI50,K562,> 100 µM (inactive)
same,GI50,KM12,93.5 µM (inactive)
same,GI50,LOX IMVI,52.6 µM (inactive)
same,GI50,M14,> 100 µM (inactive)
same,GI50,MDA-MB-231,> 100 µM (inactive)
same,GI50,MDA-MB-435,> 100 µM (inactive)
same,GI50,MDA-N,> 100 µM (inactive)
same,GI50,Malme-3M,27.5 µM (inactive)
same,GI50,NCI-H226,25.5 µM (inactive)
same,GI50,NCI-H23,> 100 µM (inactive)
same,GI50,NCI-H460,46.1 µM (inactive)
same,GI50,NCI-H522,29.3 µM (inactive)
same,GI50,NCI/ADR-RES,> 100 µM (inactive)
same,GI50,OVCAR-3,> 100 µM (inactive)
same,GI50,OVCAR-4,34 µM (inactive)
same,GI50,OVCAR-5,> 100 µM (inactive)
same,GI50,OVCAR-8,92.9 µM (inactive)
same,GI50,PC-3,> 100 µM (inactive)
same,GI50,RPMI-8226,> 100 µM (inactive)
same,GI50,RXF 393,63.5 µM (inactive)
same,GI50,SF-295,56.6 µM (inactive)
same,GI50,SF-539,53.2 µM (inactive)
same,GI50,SK-MEL-28,> 100 µM (inactive)
same,GI50,SK-MEL-2,> 100 µM (inactive)
same,GI50,SK-MEL-5,57.9 µM (inactive)
same,GI50,SK-OV-3,> 100 µM (inactive)
same,GI50,SN12C,> 100 µM (inactive)
same,GI50,SNB-19,37.4 µM (inactive)
same,GI50,SNB-75,46.6 µM (inactive)
same,GI50,SR,> 100 µM (inactive)
same,GI50,SW-620,> 100 µM (inactive)
same,GI50,T47D,> 100 µM (inactive)
same,GI50,TK-10,41.7 µM (inactive)
same,GI50,U-251,48.3 µM (inactive)
same,GI50,UACC-257,54 µM (inactive)
same,GI50,UACC-62,36.2 µM (inactive)
same,GI50,UO-31,> 100 µM (inactive)
